Measurements: patent US20140255527A1, “Expression Promoting Agent For Clock Gene And Hyaluronic Acid Synthase Gene” (SHISEIDO COMPANY, LTD., priority 2011, published 2014)

Tests used:
Type in all cases: cell-based
Conditions in all cases: medical agent for stimulation in cultured human dermal fibroblast system; no data shown
[1] = test system: HAS2 hyaluronic acid synthase gene; assay: Expression amount of HAS2 hyaluronic acid synthase gene in cultured human dermal fibroblast (RT-PCR, relative to RPLP0)
Description: (§1) Moreover, as the clock gene, an amount of expression of a Bmal gene (typified by Bmal1) or a Period gene (typified by Period1) in connection with the core system was measured. As a hyaluronic acid synthase gene, an amount of expression of hyaluronic acid synthase gene 2 (HAS2) was measured. […] In experiments described below, a gene expression amount after 16 hours or 2 hours from the stimulation was used as an index, respectively, and an effect on promotion of expression of the Bmal gene, the Period gene and the HAS2 gene being a test substance was evaluated.
(§2) As a cultured human dermal fibroblast, a commercially available normal human dermal fibroblast derived from adult skin (Cell Application, Inc) was purchased, and used for an experiment. Seeding was made in a DMEM culture medium prepared by adding 10% FBS, 20 mM HEPES, Glutamax and an antibacterial agent, and culture was made at 37° C. under 5% CO2. […] From the cell taken therefrom, RNA was extracted using a commercially available RNA extraction kit, and an expression amount of a clock gene (Period1, Bmal1) and a hyaluronic acid synthase gene (HAS2) was measured using a commercially available PCR primer (Perfect Real Time Primer, TAKARA BIO INC.) according to an RT-PCR method. […]

Bmal1 clock gene = assay: Expression amount of Bmal1 clock gene in cultured human dermal fibroblast (RT-PCR, relative to RPLP0)
Description: as §1, §2

Period1 clock gene = assay: Expression amount of Period1 clock gene in cultured human dermal fibroblast (RT-PCR, relative to RPLP0)
Description: as §1, §2

| SMILES | time of peaked expression amount of HAS2 after stimulation (circadian rhythm) [1] | time of peaked expression amount of Bmal1 after stimulation (circadian rhythm) (Bmal1 clock gene) | time of peaked expression amount of Period1 after stimulation (circadian rhythm) (Period1 clock gene) [h] |
| --- | --- | --- | --- |
| C[C@]12CCC(=O)C=C1CC[C@@H]1[C@@H]2[C@@H](O)C[C@@]2(C)[C@H]1CC[C@]2(O)C(=O)CO [cortisol] | approximately 16 hours | approximately 16 hours | 2 |
| C=C[C@@]1(C)CC(=O)[C@]2(O)[C@@]3(C)[C@@H](O)CCC(C)(C)[C@@H]3[C@H](O)[C@H](OC(C)=O)[C@@]2(C)O1 [forskolin] | approximately 16 hours | approximately 16 hours | 2 |
